Experimental data as given in PubChem BioAssay AID1949 (Southern Research Institute, 2009).
≈ marks a conversion by molar mass, not a printed value. Results filed as inconclusive are left out. Calls of active or inactive are those of the source. How the calls were made is not given here.

Tested on: M. tuberculosis H37Rv growth inhibition
Experiment: Mycobacterium tuberculosis H37Rv growth inhibition, cell based, confirmatory dose response (AID 1949);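 further: bacteria grown 7 days with compound before Alamar blue readout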

SMILES | IC50
Cc1ccccc1Nc1nc(NCc2ccco2)c2ccccc2n1 | 2.64 µg/mL (≈ 7.99 µM)
COc1cc(/C=C/c2ccc3cccc(OC)c3n2)c(Cl)cc1OC(C)=O | 35.3 µg/mL (≈ 92 µM)
CC(=O)c1ccc(NC(=O)NC(C)C23CC4CC(CC(C4)C2)C3)cc1 (stereo unspecified) | 19 µg/mL (≈ 55.8 µM)
COc1ccc(CNC(=O)c2sc3nc4c(c(C(F)(F)F)c3c2N)CC(C)CC4)cc1OC (stereo unspecified) | > 50 µg/mL (inactive)
O=C(OCc1c(F)cccc1Cl)c1cc2ccccc2oc1=O | > 50 µg/mL (inactive)
COc1ccc(-c2cc(=O)oc3cc(OCC(=O)OCc4ccccc4)ccc23)cc1 | 16.4 µg/mL (≈ 39.3 µM)
CCOc1ccccc1NC(=O)COc1ccc(C(C)C)cc1 | 5.01 µg/mL (≈ 16 µM)
C#CCSc1nnc(-c2ccc([N+](=O)[O-])cc2)o1 | < 0.1 µg/mL
CCOC(=O)C(C)n1cnc2scc(-c3ccc(CC)cc3)c2c1=O (stereo unspecified) | 3.9 µg/mL (≈ 10.9 µM)
O=C(Nc1ccccc1Cl)c1cc2cc(Cl)cc(Cl)c2oc1=O | > 50 µg/mL (inactive)
CCc1cc2c(=O)c(-c3ccc(OC)cc3)coc2cc1OCC(=O)OC | 1.19 µg/mL (≈ 3.23 µM)
CCOc1ccc(Nc2cc(C)nc3ccc(C(=O)OC)cc23)cc1 | 3.71 µg/mL (≈ 11 µM)
O=C(Nc1ccc(Cl)c(Cl)c1)c1ccc(Cl)cc1Cl | 5.19 µg/mL (≈ 15.5 µM)
O=C(Oc1cccc2cccnc12)c1cccc([N+](=O)[O-])c1 | 10.8 µg/mL (≈ 36.7 µM)
CC(C)(C)c1ccc(C(=O)Nc2nccs2)cc1Br | 0.37 µg/mL (≈ 1.09 µM)
COC(=O)c1cc(NC(=O)Nc2cccc(Cl)c2)cc(C(=O)OC)c1 | 0.18 µg/mL (≈ 0.496 µM)
O=C(CCSc1ccc(Cl)cc1)Nc1ccc(F)c(Cl)c1 | 4.06 µg/mL (≈ 11.8 µM)
O=C(/C=C/c1cccc(C(F)(F)F)c1)Nc1cccc(C(F)(F)F)c1 | 0.9 µg/mL (≈ 2.51 µM)
CCOC(=O)N1CCN(CC(O)COc2ccc(C3CCCCC3)cc2)CC1 (stereo unspecified) | 3.69 µg/mL (≈ 9.45 µM)
CC(CCc1ccccc1)NC(=O)c1ccc(Cl)cc1[N+](=O)[O-] (stereo unspecified) | 3.7 µg/mL (≈ 11.1 µM)
CCCCOc1ccc(S(=O)(=O)Nc2ccc(Cl)cc2)cc1 | 4.09 µg/mL (≈ 12 µM)
COC(=O)COc1ccc(Br)cc1C=O | 12.4 µg/mL (≈ 45.5 µM)
O=C(Oc1c(Cl)cc(Cl)c2cccnc12)c1ccc([N+](=O)[O-])cc1 | 0.88 µg/mL (≈ 2.42 µM)

SMILES | IC50
CC(C)Oc1ccc(Nc2ncnc3ccc(Br)cc23)cc1 | 2.5 µg/mL (≈ 6.98 µM)
Cc1cc(C)cc(OCC(=O)Nc2ccc3oc(-c4ccc(F)cc4)nc3c2)c1 | > 50 µg/mL (inactive)
O=C(Oc1ccc(F)cc1)c1ccc(Oc2ccc([N+](=O)[O-])cc2)cc1 | 1.12 µg/mL (≈ 3.17 µM)
CCCc1cc2c(-c3ccccc3)cc(=O)oc2cc1OCC(=O)OC | 5.24 µg/mL (≈ 14.9 µM)
O=C(CCNc1cccc(Br)c1)c1cccs1 | 5.43 µg/mL (≈ 17.5 µM)
Cc1c(Cl)cccc1NC(=O)c1ccc(OC(C)C(=O)OC2CCCCC2)cc1 (stereo unspecified) | < 0.1 µg/mL
CCOc1cc(C(=O)O/N=C(\N)Cc2ccc(Cl)cc2Cl)cc(OCC)c1OCC | 38 µg/mL (≈ 83.5 µM)
CCOC(=O)c1ccccc1OC(=O)c1c(F)c(F)c(F)c(F)c1F | 9.77 µg/mL (≈ 27.1 µM)
Cc1cc(Nc2cccc(Cl)c2)nc(NCc2ccccc2)n1 | 1.39 µg/mL (≈ 4.28 µM)
Cc1nc2c(-c3ccc(Cl)cc3)cnn2c(N)c1-c1ccccc1 | 0.84 µg/mL (≈ 2.51 µM)
COC(=O)CSc1[nH]c2ccc(F)cc2c1[N+](=O)[O-] | 23.2 µg/mL (≈ 81.7 µM)
CCC(=O)NC(=S)Nc1ccc(N2CCCCC2)cc1 | 3.52 µg/mL (≈ 12.1 µM)
CCCNC(=S)NC(=O)c1ccc(C(C)(C)C)cc1 | 17 µg/mL (≈ 61 µM)
CC(C)(C)c1ccc(C(=O)NC(=S)Nc2cccc(C#N)c2)cc1 | > 50 µg/mL (inactive)
Cc1ccc(Cl)cc1N1CCN(CC(O)COc2ccc(Cl)cc2Cl)CC1 (stereo unspecified) | 6.67 µg/mL (≈ 15.5 µM)
O=C(CCc1nc(-c2ccc(Cl)cc2)no1)OCc1ccc(Br)cc1 | > 50 µg/mL (inactive)
Cc1cc(C)c2c(N)c3cccc(C)c3nc2n1 | > 50 µg/mL (inactive)
C/C(=N/Nc1nc(C)c(C)s1)c1ccc(Br)cc1 | 0.59 µg/mL (≈ 1.82 µM)
CN(C)c1ccc(CNC23CC4CC(CC(C4)C2)C3)cc1 | 1.43 µg/mL (≈ 5.03 µM)
CCOC(=O)COc1ccc(S(=O)(=O)N2CCc3ccccc3C2)cc1 | 0.64 µg/mL (≈ 1.7 µM)
O=C(COc1ccc(-c2ccccc2)cc1)OC1CCCCC1 | 0.65 µg/mL (≈ 2.09 µM)
CCOC(=O)c1c(NC(=O)c2c(F)c(F)c(F)c(F)c2F)sc(C(N)=O)c1C | < 0.1 µg/mL
CCOC(=O)COc1ccc2oc(C)c(C(=O)OC)c2c1 | 6.25 µg/mL (≈ 21.4 µM)
